Results from US5182295A, “Insecticidal benzofuran derivatives” (Roussel Uclaf, priority 1990, dated 1993).
In brackets after ≈: the same amount, converted by molar mass. Like-named read-outs stand apart in the source and are kept apart here.

Tests used:
Assay type in all cases: in vivo
Tetranychus Urticae = experiment: Acaricide study on Tetranychus Urticae; conditions: 72 h, read-out: LC50, Tetranychus
Experimental: Bean plants were used comprising 2 leaves infested with 30 females of Tetranychus Urticae per leaf and put under an aerated hood under a lighted ceiling which was constantly on. The plants were treated with a Fisher gun with 4 ml of toxic solution per plant of a mixture with an equal volume of water and acetone. After leaving to dry for half an hour the infestation was proceeded with and mortality checks were carried out at the end of 3 days. The LC50 dose was determined and the results are set out in the table below, taking account of the following values: […]

Plasmopara viticola = experiment: Fungicide activity: tests on Plasmopara viticola (vine plants, leaf spray); conditions: 100 ppm of active material, relative to non-treated control; for % of effectiveness on plasmopara viticola, Grenache vine: ten days after contamination
Experimental: Young vine plants from cuttings (Grenache N variety, clone 70) were cultivated in a greenhouse (daytime temperature: 30° C., night-time temperature: 25° C.) on an earth/compost/sand mixture, (1/3-1/3-1/3). Two days before the test, the plants were moved into a culture chamber with the same temperature conditions and humidity 60% in the day, 80% at night. The product was dissolved in "matrix A" at a concentration of 100 ppm just before use. The treatment took place by spraying the solution on the leaves until saturation Contamination was carried out with a suspension of zoospores of Plasmopara viticola taken immediately before the test using 50,000 zoospores per ml. Drops of suspension (20 micro-liters) were deposited on the abaxial surface of the leaves. The plants were then kept for 24 hours in an atmosphere saturated with water-vapour. Then, the atmosphere was returned to the humidity of the culture chamber (60% in the day, 80% at night). The reading was taken ten days after contamination by measuring the development of clusters of sporangiophores on the abaxial surface of the leaves. The effectiveness of the product was calculated relative to a non-treated control. The same type of test was carried out on a Chardonnay vine.
The results obtained in % of effectiveness on plasmopara viticola at 100 ppm of active material were as follows: […]

[1] = system: Spodoptera Littoralis (L3 stage larvae); experiment: whole plant or invertebrate; conditions: 168 h, read-out: LC50, Spodoptera
Experimental: L3 stage SPODOPTERA LITTORALIS larvae were used and the operation was carried out at 22° C. at relative humidity conditions of 50%. Petri dishes were used containing a damp circular piece of filter paper and in each dish, two bean plant leaves were placed and treated with hydroacetonic solution (50-50) containing the product under test. The dead larvae were counted at the end of 7 days and the concentration LC50 were expressed in ppm.

Musca Domestica (Fly) = experiment: Insecticide activity: lethal effect on Musca Domestica (topical application); conditions: 6-day-old female flies, topical application of acetone solution on dorsal thorax, 22° C.
Experimental: 6-day-old female flies weighing 18 to 20 mg were used and the operation was carried out at 22° C. at relative humidity conditions of 50%. The products were administered by topical application of an acetone solution of 1 g/l on the dorsal thorax of the insects. The LC50 dose was determined and was expressed in ppm.

Aphis Cracivora = experiment: Insecticide activity: activity on Aphis Cracivora; conditions: female apter on sprayed broad bean leaves, 24 hours
Experimental: 2 ml of water acetone solution (50/50) was sprayed on broad bean leaves (vicia fabae) until the leaves were running with solution. After drying, 15 female apter of Aphis cracivora were deposited on the leaves and the mixture was kept on the damp filter paper inside a Petri dish. 24 hours after the start of contact, the number of dead insects was determined and the LC50 dose expressed in ppm were determined.

[2] = females on treated bean plants, 3 days
[3] = L3 larvae, contact and ingestion, treated bean leaves, 7 days, 22° C.

CO/C=C(\C(=O)OC)c1cccc2cc(-c3ccc(OC)cc3)oc12 [1 (Z)]
LC50 (Tetranychus Urticae; [2]): < 250 µg/mL | % of effectiveness on plasmopara viticola, Grenache vine (Plasmopara viticola): 100% | LC50 [1, 3]: 250 to 1000 µg/mL (≈ 739 to 2960 µM)

CO/C=C(/C(=O)OC)c1cccc2cc(-c3cccc(OC)c3)oc12 [2 (E)]
% of effectiveness on plasmopara viticola, Chardonnay vine (Plasmopara viticola): 100% | % of effectiveness on plasmopara viticola, Grenache vine (Plasmopara viticola): 100%

CO/C=C(/C(=O)OC)c1cccc2cc(-c3ccccc3)oc12 [3 (E)]
LC50 [1, 3]: 250 to 1000 µg/mL (≈ 811 to 3240 µM)

CO/C=C(\C(=O)OC)c1cccc2cc(-c3ccccc3)oc12 [3 (Z)]
LC50 [1, 3]: 250 to 1000 µg/mL (≈ 811 to 3240 µM)

CO/C=C(/C(=O)OC)c1cccc2cc(-c3ccccc3Cl)oc12 [10 (E)]
% of effectiveness on plasmopara viticola, Chardonnay vine (Plasmopara viticola): 90% | % of effectiveness on plasmopara viticola, Grenache vine (Plasmopara viticola): 100%

CO/C=C(/C(=O)OC)c1cccc2cc(-c3ccc(Cl)cc3)oc12 [12 (E)]
LC50 (Tetranychus Urticae; [2]): < 250 µg/mL | % of effectiveness on plasmopara viticola, Chardonnay vine (Plasmopara viticola): 100% | % of effectiveness on plasmopara viticola, Grenache vine (Plasmopara viticola): 100% | LC50 (Musca Domestica (Fly)): < 250 µg/mL

CO/C=C(/C(=O)OC)c1cccc2cc(-c3ccc(Br)c(C(F)(F)F)c3)oc12 [14 (E), Methyl α[(E)methoxymethylene1-2-4-bromo-3-(trifluoromethyl)-phenyl]benzofuran acetate]
LC50 (Tetranychus Urticae; [2]): < 250 µg/mL | LC50 (Musca Domestica (Fly)): < 250 µg/mL | LC50 [1, 3]: 250 to 1000 µg/mL

CO/C=C(/C(=O)OC)c1cccc2cc(-c3ccc(Cl)c(OC)c3)oc12 [15 (E)]
LC50 (Tetranychus Urticae; [2]): 250 to 1000 µg/mL (≈ 671 to 2680 µM) | LC50 (Aphis Cracivora): < 250 µg/mL | LC50 (Musca Domestica (Fly)): < 250 µg/mL | LC50 [1, 3]: 250 to 1000 µg/mL (≈ 671 to 2680 µM)

CO/C=C(/C(=O)OC)c1cccc2cc(-c3csc(C(C)C)n3)oc12 [16 (E), Methyl α-(E)methoxymethylene1-7-[2-[4-(2-isopropylthiazolyl)-benzofuranyl]-acetate]
LC50 (Tetranychus Urticae; [2]): < 250 µg/mL

CO/C=C(/C(=O)OC)c1cccc2cc(-c3ccc4c(c3)OCO4)oc12 [17 (E), Methyl α[(E)-methoxymethylene1-2-(3,4-methylenedioxy)-phenyl-7-benzofuran acetate]
LC50 (Musca Domestica (Fly)): < 250 µg/mL | LC50 [1, 3]: < 250 µg/mL

CCCCc1cc2cccc(/C(=C\OC)C(=O)OC)c2o1 [18 (E), Methyl α[(E)-methoxymethylene1-2-butyl-7-benzofuran acetate]
LC50 (Tetranychus Urticae; [2]): < 250 µg/mL | LC50 (Aphis Cracivora): < 250 µg/mL

CO/C=C(/C(=O)OC)c1cccc2cc(-c3csc(-c4ccc(OC(F)(F)F)cc4)n3)oc12 [19 (E), Methyl α[(E)-methoxymethylene]-2-[2-[4-(trifluoromethyxy)-pehny]-4-thiazolyl]-7-benzofuran acette]
LC50 [1, 3]: < 250 µg/mL

CO/C=C(/C(=O)OC)c1cccc2cc(-c3cccc(Oc4ccccc4)c3)oc12 [24 (E), Methyl α-[(E)-methoxymethylene]-2-(3-phenoxyphenyl) -7-benzofuran acetate]
LC50 (Musca Domestica (Fly)): < 250 µg/mL

CO/C=C(/C(=O)OC)c1cccc2cc(-c3ccc(Oc4ccccc4)cc3)oc12 [25 (E), Methyl α-[(E)-methoxymethylene]-2-(4-phenoxyphenyl) -7-benzofuran acetate]
LC50 (Musca Domestica (Fly)): < 250 µg/mL

CO/C=C(/C(=O)OC)c1cccc2cc(-c3ccc(OC)cc3)oc12 [Example 1 (E), Methyl α-[(E)-methoxymethylene]-2-(4-methoxy-phenyl)-7-benzofuranacetate]
LC50 (Tetranychus Urticae): < 250 µg/mL | % of effectiveness on plasmopara viticola, Grenache vine (Plasmopara viticola): 90% | LC50 [1]: 250 to 1000 µg/mL (≈ 739 to 2960 µM)

CO/C=C(/C(=O)OC)c1cccc2cc(-c3cccc(Cl)c3)oc12 [Example 11 (E)]
% of effectiveness on plasmopara viticola, Chardonnay vine (Plasmopara viticola): 100% | % of effectiveness on plasmopara viticola, Grenache vine (Plasmopara viticola): 100% | LC50 [1, 3]: 250 to 1000 µg/mL (≈ 729 to 2920 µM)
